In patent US12162893B2 (Erasca, Inc., priority 2020, dated 2024):

Molecular target: T1, mutant G12C K-RAS (Homo sapiens, UniProt P01116, G12C)
T1 construct: made in house; host or cells: E. coli BL21
Test: covalent adduct formation (CAF) with mutant G12C K-RAS
Type: binding
Set-up: CAF: unit not given here
Conditions: Table 2, Pyrimidone Core-Morpholine Substituted; after 60 minutes at 10 micromolar
Protocol: Embodiments disclosed herein are further illustrated by the following examples in Tables 1-4 and the Examples hereinbelow. The Tables indicate the compound number, structure, the observed mass spectral molecular weight peak, and covalent adduct formation (CAF) with a mutant G12C K-RAS after 60 minutes at a concentration of 10 micromolar.

% CAF (60 min) [%]	Compound
81.9	C=CC(=O)N1C[C@H](C)N(c2nc(=O)n3c4c(c(-c5c(O)cccc5F)c(Cl)cc24)OC[C@@H]3CO)C[C@H]1C [Example 26, (3S)-7-((2S,5R)-4-acryloyl-2,5-dimethylpiperazin-1-yl)-9-chloro-10-(2-fluoro-6-hydroxyphenyl)-3-(hydroxymethyl)-2H-[1,4]oxazino[2,3,4-ij]quinazolin-5(3H)-one]
84.6	C=CC(=O)N1C[C@H](C)N(c2nc(=O)n3c4c(c(-c5ccc(F)cc5F)c(Cl)cc24)OCC3CN(C)C)C[C@H]1C (stereo partly drawn) [Example 35, 7-((2S,5R)-4-acryloyl-2,5-dimethylpiperazin-1-yl)-9-chloro-10-(2,4-difluorophenyl)-3-((dimethylamino)methyl)-2H-[1,4]oxazino[2,3,4-ij]quinazolin-5(3H)-one]

Same assay, conditions: Table 3, Pyridone Core-Morpholine Unsubstituted; after 60 minutes at 10 micromolar

CAF	Compound
1	C=CC(=O)N1CCN(c2cc(=O)n3c4c(c(-c5c(C)ccc6[nH]nc(C)c56)ccc24)CCC3)CC1 [Example 48, 1-(4-acryloylpiperazin-1-yl)-8-(3,5-dimethyl-1H-indazol-4-yl)-6,7-dihydropyrido[3,2,1-ij]quinolin-3(5H)-one]

Same assay, conditions: Table 6; 10 μM, 1 h

% CAF @ 10 μM,1 h [%]	Compound
22.8	C=CC(=O)N1C[C@H](C)N(c2nc(=O)n3c4c(c(-c5cccc6ccccc56)c(Cl)cc24)OC[C@@H]3CN2CCN(C)CC2)C[C@H]1C (atropisomer, axis not shown) [Example 308, (3S,10S)-7-((2S,5R)-4-acryloyl-2,5-dimethylpiperazin-1-yl)-9-chloro-3-((4-methylpiperazin-1-yl)methyl)-10-(naphthalen-1-yl)-2,3-dihydro-5H-[1,4]oxazino[2,3,4-ij]quinazolin-5-one]
85.3	C=CC(=O)N1C[C@H](C)N(c2nc(=O)n3c4c(c(-c5ccc(F)cc5F)c(Cl)cc24)OC[C@H]3CCCO)C[C@H]1C [Example 251, (3R)-7-((2S,5R)-4-acryloyl-2,5-dimethylpiperazin-1-yl)-9-chloro-10-(2,4-difluorophenyl)-3-(3-hydroxypropyl)-2,3-dihydro-5H-[1,4]oxazino[2,3,4-ij]quinazolin-5-one]
97.6	C=CC(=O)N1CCN(c2nc(=O)n3c4c(c(-c5c(O)cccc5F)c(Cl)cc24)OC[C@@H]3CN2CCOCC2)[C@@H](C)C1 [Example 196, (3S,10S)-7-((S)-4-acryloyl-2-methylpiperazin-1-yl)-9-chloro-10-(2-fluoro-6-hydroxyphenyl)-3-(morpholinomethyl)-2,3-dihydro-5H-[1,4]oxazino[2,3,4-ij]quinazolin-5-one]
79.8	C=CC(=O)N1C[C@H](C)N(c2nc(=O)n3c4c(c(-c5ccc(F)cc5F)c(Cl)cc24)OC[C@@H]3COC[C@@H]2CCCN2C)C[C@H]1C [Example 296, (3S)-7-((2S,5R)-4-acryloyl-2,5-dimethylpiperazin-1-yl)-9-chloro-10-(2,4-difluorophenyl)-3-((((S)-1-methylpyrrolidin-2-yl)methoxy)methyl)-2,3-dihydro-5H-[1,4]oxazino[2,3,4-ij]quinazolin-5-one]
0	C=CC(=O)N1C[C@H](C)N(c2nc(=O)n3c4c(c(-c5c(O)cccc5F)c(Cl)cc24)OC[C@H]3Cn2cccn2)C[C@H]1C (atropisomer, axis not shown) [Example 245, (3R,10R)-3-((1H-pyrazol-1-yl)methyl)-7-((2S,5R)-4-acryloyl-2,5-dimethylpiperazin-1-yl)-9-chloro-10-(2-fluoro-6-hydroxyphenyl)-2H-[1,4]oxazino[2,3,4-ij]quinazolin-5(3H)-one]
0	C=CC(=O)N1C[C@H](C)N(c2nc(=O)n3c4c(c(-c5c(F)ccc6[nH]nnc56)ccc24)OCC3)C[C@H]1C [Example 223, 7-((2S,5R)-4-acryloyl-2,5-dimethylpiperazin-1-yl)-10-(5-fluoro-1H-benzo[d][1,2,3]triazol-4-yl)-2,3-dihydro-5H-[1,4]oxazino[2,3,4-ij]quinazolin-5-one]
0	C=CC(=O)N1CCN(c2nc(=O)n3c4c(c(-c5c(O)cccc5F)c(Cl)cc24)OC[C@H]3CN2CCC(F)(F)C2)[C@@H](C)C1 (atropisomer, axis not shown) [Example 227, (3R,10R)-7-((S)-4-acryloyl-2-methylpiperazin-1-yl)-9-chloro-3-((3,3-difluoropyrrolidin-1-yl)methyl)-10-(2-fluoro-6-hydroxyphenyl)-2,3-dihydro-5H-[1,4]oxazino[2,3,4-ij]quinazolin-5-one]
52.1	C=CC(=O)N1C[C@H](C)N(c2nc(=O)n3c4c(c(-c5c(O)cccc5F)c(Cl)cc24)OC[C@H]3CN2CCN(C)CC2)C[C@H]1C (atropisomer, axis not shown) [Example 301, (3R,10S)-7-((2S,5R)-4-acryloyl-2,5-dimethylpiperazin-1-yl)-9-chloro-10-(2-fluoro-6-hydroxyphenyl)-3-((4-methylpiperazin-1-yl)methyl)-2,3-dihydro-5H-[1,4]oxazino[2,3,4-ij]quinazolin-5-one]
82.1	C=CC(=O)N1C[C@H](C)N(c2nc(=O)n3c4c(c(-c5c(O)cccc5F)c(Cl)cc24)OC[C@@H]3CN(C)CC(F)(F)F)C[C@H]1C (atropisomer, axis not shown) [Example 240, (3S,10S)-7-((2S,5R)-4-acryloyl-2,5-dimethylpiperazin-1-yl)-9-chloro-10-(2-fluoro-6-hydroxyphenyl)-3-((methyl(2,2,2-trifluoroethyl)amino)methyl)-2H-[1,4]oxazino[2,3,4-ij]quinazolin-5(3H)-one]
0	C=CC(=O)N1C[C@H](C)N(c2nc(=O)n3c4c(c(-c5c(F)ccc6c5C(=O)NC6)ccc24)OCC3)C[C@H]1C [Example 231, 7-((2S,5R)-4-acryloyl-2,5-dimethylpiperazin-1-yl)-10-(5-fluoro-3-oxoisoindolin-4-yl)-2,3-dihydro-5H-[1,4]oxazino[2,3,4-ij]quinazolin-5-one]
94.6	C=CC(=O)N1C[C@H](C)N(c2nc(=O)n3c4c(c(-c5ccc(F)cc5F)c(Cl)cc24)OC[C@@H]3CN2CCS(=O)(=O)CC2)C[C@H]1C [Example 269, (3S)-7-((2S,5R)-4-acryloyl-2,5-dimethylpiperazin-1-yl)-9-chloro-10-(2,4-difluorophenyl)-3-((1,1-dioxidothiomorpholino)methyl)-2H-[1,4]oxazino[2,3,4-ij]quinazolin-5(3H)-one]
45.1	C=CC(=O)N1C[C@H](C)N(c2nc(=O)n3c4c(c(-c5ccc(F)cc5F)c(Cl)cc24)OC[C@@H]3CC2(O)CCN(C)CC2)C[C@H]1C [Example 304, (3S)-7-((2S,5R)-4-acryloyl-2,5-dimethylpiperazin-1-yl)-9-chloro-10-(2,4-difluorophenyl)-3-((4-hydroxy-1-methylpiperidin-4-yl)methyl)-2,3-dihydro-5H-[1,4]oxazino[2,3,4-ij]quinazolin-5-one]

Compound	% CAF @ 10 μM,1 h [%]
C=CC(=O)N1C[C@H](C)N(c2nc(=O)n3c4c(c(-c5ccc(F)cc5F)c(Cl)cc24)O[C@H](CCCN2C4CCC2COC4)C3)C[C@H]1C [Example 261, (2R)-2-(3-(3-oxa-8-azabicyclo[3.2.1]octan-8-yl)propyl)-7-((2S,5R)-4-acryloyl-2,5-dimethylpiperazin-1-yl)-9-chloro-10-(2,4-difluorophenyl)-2,3-dihydro-5H-[1,4]oxazino[2,3,4-ij]quinazolin-5-one]	21.1
